In assay [1] the target is Cytochrome P450 3A4 (Homo sapiens) (UniProt P08684). The assay can be described thus: recombinant CYP3A isoform inhibitors – biochemical, LC-MS/MS, purified recombinant enzymes, counter-screen, late-stage follow-up (AID 686941). The settings on record: recombinant CYP3A4/CYP3A5, LC-MS/MS metabolite formation; CYP3A4. For orientation: Counterscreens check selectivity or assay interference.

For assay [2], the target named is Cytochrome P450 3A5 (Homo sapiens) (UniProt P20815). The assay is described as above. The settings on record: recombinant CYP3A4/CYP3A5, LC-MS/MS metabolite formation, CYP3A5.
Sequence of Cytochrome P450 3A5 (Homo sapiens) (P20815 whole entry, looked up): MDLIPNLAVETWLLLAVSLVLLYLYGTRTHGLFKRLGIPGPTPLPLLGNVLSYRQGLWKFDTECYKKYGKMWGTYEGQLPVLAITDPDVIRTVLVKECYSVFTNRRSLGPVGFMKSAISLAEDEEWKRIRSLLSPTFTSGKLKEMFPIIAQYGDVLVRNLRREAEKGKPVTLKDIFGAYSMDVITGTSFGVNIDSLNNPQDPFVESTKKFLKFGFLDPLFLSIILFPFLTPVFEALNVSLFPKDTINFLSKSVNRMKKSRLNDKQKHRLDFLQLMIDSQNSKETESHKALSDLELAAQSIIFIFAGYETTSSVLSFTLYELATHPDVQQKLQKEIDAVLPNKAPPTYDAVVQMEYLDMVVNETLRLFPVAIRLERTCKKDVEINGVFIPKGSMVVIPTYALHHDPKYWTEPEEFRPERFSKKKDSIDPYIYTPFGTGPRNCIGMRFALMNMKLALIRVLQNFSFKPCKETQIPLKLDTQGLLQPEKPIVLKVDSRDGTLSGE

Experimental findings from PubChem BioAssay AID686941 (The Scripps Research Institute Molecular Screening Center, 2013) are described below.

Each structure is given as a SMILES string.

Sequence of Cytochrome P450 3A4 (Homo sapiens) (P08684 whole entry, looked up, canonical isoform): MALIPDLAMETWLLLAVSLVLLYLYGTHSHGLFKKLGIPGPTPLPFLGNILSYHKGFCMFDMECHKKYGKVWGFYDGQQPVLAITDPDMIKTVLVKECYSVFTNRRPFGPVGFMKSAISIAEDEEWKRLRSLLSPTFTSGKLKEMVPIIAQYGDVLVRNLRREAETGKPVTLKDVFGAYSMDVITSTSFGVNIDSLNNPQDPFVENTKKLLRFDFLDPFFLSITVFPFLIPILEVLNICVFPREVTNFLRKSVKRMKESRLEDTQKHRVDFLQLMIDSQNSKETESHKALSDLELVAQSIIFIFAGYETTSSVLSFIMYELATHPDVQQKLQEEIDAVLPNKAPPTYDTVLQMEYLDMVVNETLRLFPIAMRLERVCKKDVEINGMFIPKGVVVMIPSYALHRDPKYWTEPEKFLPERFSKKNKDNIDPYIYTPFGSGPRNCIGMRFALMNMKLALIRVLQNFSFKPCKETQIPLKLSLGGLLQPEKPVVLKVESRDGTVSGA

On to `NC(=O)c1ccc(-c2ccc(NC(=O)Nc3ccc(-c4ccnc5nc[nH]c45)cc3)cc2)cc1`, for which, in assay [1], the IC50 was greater than 200 nM. In assay [2] (at 60 µM, stronger effect = higher value), the inhibition came to 26%.
`O=C(Nc1ccc(-c2ccc3ccccc3c2)cc1)Nc1ccc(-c2ccnc3nc[nH]c23)cc1`: the results for the IC50 in assay [1] and in assay [2] were 1700 nM and 13000 nM, respectively.

Usually IC50 stands for the concentration at which inhibition is half-maximal. What is called inhibition is how much of the control response was suppressed.
